Measurements reported in US8193245B2, “Composition comprising oleic acid and the use thereof” (University-Industry Cooperation Group of Kyung Hee …, priority 2005, dated 2012).

Key:
Sprague-Dawley rats = assay: Acute toxicity test on Sprague-Dawley rats; type: in vivo
Description: (§1) The acute toxicity tests on ICR mice (mean body weight 25±5 g) and Sprague-Dawley rats (300±10 g, Jung-Ang Lab Animal Inc.) were performed using the oleic acid of the Example 1. Four group consisting of 10 mice or rats was administrated orally with 100 mg/kg, 250 mg/kg, 500 mg/kg and 1000 mg/kg of test sample or solvents (0.2[…], i.p.) respectively and observed for 2 weeks.
(§2) The acute toxicity tests on ICR mice and Sprague-Dawley rats were performed using the extract of the Example 1. Four group consisting of 10 mice or rats was administrated intraperitoneally with 25 mg/kg, 50 mg/kg, 100 mg/kg and 200 mg/kg of test sample or solvents (0.2[…], i.p.), respectively and observed for 24 hours.

[1] = tested on: neuronal cell injury caused by focal cerebral ischemia; assay: Neuroprotective activity, middle cerebral artery occlusion (intraluminal suture) with TTC staining; type: in vivo, Sprague-Dawley rats
ICR mice = assay: Acute toxicity test on ICR mice; type: in vivo
Description: as §1, §2

[2] = intraperitoneally 25, 50, 100 and 200 mg/kg, observed for 24 hours
[3] = orally 100, 250, 500 and 1000 mg/kg, observed for 2 weeks

For CCCCCCCC/C=C\CCCCCCCC(=O)O [oleic acid, Cis-9-octadecenoic acid], the “treatment-related effects on mortality, clinical signs, body weight changes and gross findings” value (Sprague-Dawley rats; [2]) was “no treatment-related effects”, the “treatment-related effects on mortality, clinical signs, body weight changes and gross findings” value (Sprague-Dawley rats; [3]) was “no treatment-related effects” and the “staining area with TTC (white) versus control group” value ([1]; 1 mg/kg, 10 mg/kg, 100 mg/kg, 2 h MCA occlusion, 24 hours after reperfusion, FIG. 1) was “smaller staining area with TTC (white) due to little damage of neuronal cell than control group”. The “protective effect on neuronal cell death compared with control group” value ([1]; group C: 10 mg/kg) was 32.9%, the “protective effect on neuronal cell death compared with control group” value ([1]; group D: 100 mg/kg) was 64.9% and the “treatment-related effects on mortality, clinical signs, body weight changes and gross findings” value (ICR mice; [2]) was “no treatment-related effects”. For the same compound, the “treatment-related effects on mortality, clinical signs, body weight changes and gross findings” value (ICR mice; [3]) was “no treatment-related effects”.
